Results reported in patent US20060014723A1, “Anti-parasitic uses of borinic acid complexes” (priority 2004, published 2006).
Converted amounts (≈) assume the structure as drawn.

Key:
[1] = system: T. b. rhodesiense STIB 900; experiment: African sleeping sickness in vitro screening model (Alamar Blue); type: cell-based, Trypanosoma brucei rhodesiense; details: for IC50: Trypanosoma brucei
Procedure: Bloodstream from trypomastigotes of the strains (a) and (c) are maintained in Minimal Essential Medium (MEM) with Earle's salts supplemented according to Baltz, et al., (EMBO J. 4:1273-1277, 1985) with 25 mM N-2-hydroxyethylpiperazine-N′-2-ethane-sulphonic acid (HEPES), 1 g/L additional glucose, 1% MEM non-essential amino acids (100×), 0.2 mM 2-mercaptoethanol, 2 mM sodium pyruvate, 0.1 mM hypoxanthine and 15% heat-inactivated horse serum.
All cultures and assays are conducted at 37° C. under an atmosphere of 5% CO2 in air.
After use the stocks are kept at −20° C. For the assays, the compound is further diluted in serum-free culture medium and finally to the appropriate concentration in complete medium without hypoxanthine.
Assays are performed in 96-well microtiter plates, each well containing 100 μL of culture medium with 8×10^3 bloodstream forms with or without a serial drug dilution. The highest concentration for the test compounds is 90 μg/mL. Seven 3-fold drug dilutions are used, covering a range from 90 μg/mL to 0.123 μg/mL. Each drug is tested in duplicate. Active compounds are tested twice for confirmation. The final result is the mean of the four individual IC50 values. After 72 hrs of incubation, the plates are inspected under an inverted microscope to assure growth of the controls and sterile conditions.
(§1) Ten μL of Alamar Blue (12.5 mg resazurin dissolved in 100 mL distilled water) are now added to each well and the plates are incubated for another 2 hours. Then the plates are read with a Spectramax GEMINI XS microplate fluorometer (Molecular Devices Cooperation, Sunnyvale, Calif., USA) using an excitation wavelength of 536 nm and an emission wave length of 588 nm.
IC50 values are determined using the microplate reader software Softmax Pro (Molecular Devices Cooperation, Sunnyvale, Calif., USA).

[2] = system: Leishmania donovani strain MHOM/ET1671L82; experiment: Leishmaniasis in vitro screening model (axenic amastigotes, Alamar Blue); type: cell-based
Procedure: The Leishmania donovani strain MHOM/ET1671L82 (obtained from Dr. S. Croft, London School of Hygiene and Tropical Medicine) is used. The strain is maintained in the Syrian Golden hamster. Amastigotes are collected from the spleen of an infected hamster. Amastigotes are grown in axenic culture at 37° C. in SM medium (Cunningham I., J. Protozoal. 24:325-329, 1977) at pH 5.4 supplemented with 10% heat-inactivated fetal bovine serum (FBS) under an atmosphere of 5% CO2 in air.
(§2) After use the stocks are kept at −20° C. For the assays, the compound is further diluted to the appropriate concentration using complete medium.
Assays are performed in 96-well flat-bottom microtiter plates (Costar, Corning Inc.), each well containing 100 μl of culture medium with 105 amastigotes from axenic culture with or without a serial drug dilution. Concentration of amastigotes is determined in a CASY cell analyzing system (Scharfe System, Reutlingen, Germany). Before the amastigotes are counted, the parasite culture is passed twice through a 22-gauge needle to break up clusters of amastigotes.
The highest concentration for the test compounds is 90 μg/mL. Seven 3-fold dilutions are used, covering a range from […]. Each drug is tested in duplicate. Active compounds are tested twice for confirmation. After 72 hours of incubation, the plates are inspected under an inverted microscope to assure growth of the controls and sterile conditions.
as §1, with “then” for “now”, “wave length” for “wavelength”
Data are analyzed using the microplate reader software Softmax Pro (Molecular Devices Cooperation, Sunnyvale, Calif., USA). Decrease of fluorescence (i.e. inhibition) is expressed as percentage of the fluorescence of control cultures and plotted against the drug concentrations. The IC50 value is calculated from the sigmoidal inhibition curve by the software program.

[3] = system: Trypanosoma cruzi Tulahuen C2C4 strain; experiment: Chagas disease in vitro screening model (beta-galactosidase strain in L-6 cells); type: cell-based
Procedure: Trypanosoma cruzi Tulahuen C2C4 strain, containing the β-galactosidase (Lac Z) gene (Buckner et al., Antimicrob. Agents Chemother 40:2592-2597, 1996) is used for this study.
The infective amastigote and trypomastigote stages are cultivated in L-6 cells (a rat skeletal myoblast cell line) in RPMI 1640 medium supplemented with 2 mM L-glutamine and 10% heat-inactivated fetal bovine serum in 12.5 cm^2 tissue culture flasks. Amastigotes develop intracellularly, differentiate into trypomastigotes, and leave the host cell. These trypomastigotes infect new L-6 cells and are the stages used to initiate an infection in the assay. All cultures and assays are conducted at 37° C. under an atmosphere of 5% CO2 in air.
as §2
Assays are performed in sterile 96-well microtiter plates, each well containing 100 μl medium with 2×10^3 L-6 cells. After 24 hours, […] of a trypanosome suspension containing 5×10^3 trypomastigote bloodstream forms from culture are added to the wells. Forty-eight hours later, the medium is removed from the wells and replaced by […] fresh medium, with or without a serial drug dilution. At this point the L-6 cells should be infected with amastigotes and no free trypomastigotes should be in the medium. Seven 3-fold drug dilutions are used, covering a range from 90 μg/mL to 0.123 μg/mL. Each drug is tested in duplicate. Active compounds are tested twice for confirmation. After 96 hours of incubation the plates are inspected under an inverted microscope to assure growth of the controls and sterility.
Then the substrate CPRG/Nonidet (50 μl) is added to all wells. A colour reaction will become visible within 2-6 hours and can be read photometrically at 540 nm. Data are transferred into a graphics program (e.g., EXCEL), sigmoidal inhibition curves determined and IC50 values calculated.

SMILES	T. b. rhodesiense IC50 [1] [µg/mL]	L. donovani IC50 [2] [µg/mL]	T. cruzi IC50 [3] [µg/mL]	IC50 [1] [µg/mL]	IC50 ([2]; Leishmania donovani, read-out: L. donovani IC50) [µg/mL]	IC50 ([3]; Trypanosoma cruzi, TULAHUEN, L6, read-out: T. cruzi IC50) [µg/mL]
CN(C)Cc1ccc(B(Oc2cccc3cccnc23)c2ccc(Cl)cc2)cc1.Cl [Compound 105]	0.41	0.72	4.2			
CN(C)Cc1ccc(B(Oc2cccc3cccnc23)c2ccc(F)c(F)c2)cc1 [Compound 110]	0.38	0.61	4.7			
N#Cc1cccc(B(Oc2cccc3cccnc23)c2ccc(F)c(F)c2)c1 [Compound 95]	0.435	0.61	2.95			
Cc1ccc(B(OC(=O)c2ncccc2N)c2ccc(C)c(Cl)c2)cc1Cl [Compound 129]	4.4	1.6	0.855			
Fc1cccc(B(Oc2cccc3cccnc23)c2ccc(Cl)c(Cl)c2)c1 [Compound 46, (3,4-Dichlorophenyl)(3-fluorophenyl)borinic acid quinolin-8-yl ester]				0.51 (≈ 1.29 µM)	0.44 (≈ 1.11 µM)	0.84 (≈ 2.12 µM)
N#Cc1cccc(B(Oc2cccc3cccnc23)c2cccnc2)c1 [Compound 102]	0.49	0.37	4.2			
O=C(OB(c1ccc(Cl)cc1)c1ccc(Cl)cc1)c1cccc(O)n1 [Compound 132]	45.7	14.1	23.4			
Clc1cccc(B(Oc2cccc3cccnc23)c2cccnc2)c1 [Compound 99]	0.345	0.49	4.45			
C=CB(Oc1cccc2cccnc12)c1ccco1 [Compound 117]	0.295	0.63	3.65			
N#Cc1cccc(B(Oc2cccc3cccnc23)c2cc(F)cc(C(F)(F)F)c2)c1 [Compound 121]	0.43	0.53	4.95			
Cc1cc(Cl)ccc1B(Oc1cccc2cccnc12)c1ccc(Cl)cc1C [Compound 109]	0.405	0.75	4.35			
Cc1cc(Cl)ccc1B(OC(=O)c1ncccc1O)c1ccc(Cl)cc1C [Compound 134]	1.7	0.12	3.6			
Cc1ccc(B(OC(=O)c2ncccc2O)c2ccc(C)c(Cl)c2)cc1Cl [Compound 127, Bis(3-Chloro-4-methylphenyl)borinic acid 3-hydroxypicolinate ester]	2.5	0.36	6.3			
Cc1ccc(B(Oc2cccc3cccnc23)c2ccco2)cc1Cl [Compound 103]	0.38	0.35	4.4			
Fc1ccc(B(Oc2c(Cl)cc(Cl)c3cccnc23)c2ccc(Cl)cc2)cc1 [Compound 92]	1.1	0.052	2.55			
N#Cc1cccc(B(Oc2cccc3cccnc23)c2cc(F)ccc2F)c1 [Compound 113]	0.39	0.57	4.25			
N#Cc1ccc(B(Oc2cccc3cccnc23)c2ccc(C#N)cc2)cc1 [Compound 88]	0.41	0.76	1.385			
C=CB(Oc1cccc2cccnc12)c1ccc(CN(C)C)cc1.Cl [Compound 124]	0.445	0.3	3.95			
C=CB(Oc1cccc2cccnc12)c1ccc(F)nc1 [Compound 101]	0.3	0.34	3.95			
C=CB(Oc1cccc2cccnc12)c1ccc(OC)nc1 [Compound 100]	0.305	0.33	3.8			
CN(C)CCOc1ccc(B(Oc2cccc3cccnc23)c2ccc(Cl)cc2)cc1 [Compound 104]	1.24	0.71	4.3			
Cc1ccc(B(OC(=O)c2ncccc2C(=O)O)c2ccc(C)c(Cl)c2)cc1Cl [Compound 128]	8	0.61	1.75			
Clc1ccc(B(Oc2c(I)cc(Cl)c3cccnc23)c2ccc(Cl)cc2)cc1 [Compound 90]	1.4	0.15	3.25			
Fc1ccc(B(Oc2cccc3cccnc23)c2ccc(Cl)cc2)cc1F [Compound 114]	0.41	0.71	4			
CN(C)Cc1ccc(B(Oc2cccc3cccnc23)c2ccc(Cl)cc2)cc1.O=C(O)/C=C/C(=O)O [Compound 106]	0.385	0.69	4.25			
CC1CCN(S(=O)(=O)c2ccc(B(Oc3cccc4cccnc34)c3ccc(Cl)cc3)cc2)CC1 [Compound 111]	0.552	0.74	4.15			
C=CB(Oc1cccc2cccnc12)c1ccc(CN(C)C)cc1 [Compound 119]	0.51	0.36	3.8			
Cc1cc(C)c2cccnc2c1OB(c1ccc(F)cc1)c1ccc(Cl)cc1 [Compound 91]	0.36	0.94	4.3			
CC1(C)COC(c2cccc(B(Oc3cccc4cccnc34)c3cccc(Cl)c3)c2)=N1 [Compound 18, (3-Chlorophenyl)[3-(4,5-dihydro-4,4-dimethyloxazol-2yl)phenyl]borinic acid quinolin-8-yl ester]				1.7 (≈ 3.86 µM)		
